{
  "source": "patent US10316028B2",
  "about": "“Orexin receptor antagonists” (Heptares Therapeutics Limited, priority 2012, dated 2019)",
  "key": {"human Orexin-2 receptor": {"biological_target": "T1, human Orexin-2 receptor (Homo sapiens, UniProt O43614)", "T1 construct": "expressed in transfected cells; host or cells: HEK293 cells (transient transfection, Genejuice); membranes", "T1 sequence (O43614 1-444)": "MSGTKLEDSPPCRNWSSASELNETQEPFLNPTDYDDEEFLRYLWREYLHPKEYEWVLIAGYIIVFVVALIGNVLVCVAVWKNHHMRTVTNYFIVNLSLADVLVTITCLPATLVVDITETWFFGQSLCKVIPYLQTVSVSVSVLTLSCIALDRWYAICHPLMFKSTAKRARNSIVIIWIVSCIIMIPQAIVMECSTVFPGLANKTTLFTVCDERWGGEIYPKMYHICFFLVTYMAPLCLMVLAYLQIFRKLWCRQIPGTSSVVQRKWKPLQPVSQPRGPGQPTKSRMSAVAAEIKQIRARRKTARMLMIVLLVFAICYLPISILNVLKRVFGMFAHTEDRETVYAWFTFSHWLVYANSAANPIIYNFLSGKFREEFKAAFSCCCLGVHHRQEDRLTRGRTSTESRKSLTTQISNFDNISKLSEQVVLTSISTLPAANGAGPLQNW", "assay": "3H-EMPA radioligand binding assay", "conditions": "3H-EMPA displacement, membranes of HEK293 cells transfected with human Orexin-2 receptor; KI by Cheng-Prussoff; read-out: OX2 pKi ave (converted)", "outline": "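Membranes from HEK293 cells transiently transfected with human orexin-2 receptor cDNA, assayed with [3H]EMPA. Bound ligand collected on PEI-treated GF/B filters and counted by scintillation; IC50 from inhibition curves, Ki by Cheng-Prusoff.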"}, "[1]": {"biological_target": "T2, cortical orexin-2 receptors (Rattus norvegicus, UniProt P56719)", "T2 construct": "from tissue; host or cells: rat brain cortex sections (Sprague Dawley)", "T2 sequence (P56719 1-460)": "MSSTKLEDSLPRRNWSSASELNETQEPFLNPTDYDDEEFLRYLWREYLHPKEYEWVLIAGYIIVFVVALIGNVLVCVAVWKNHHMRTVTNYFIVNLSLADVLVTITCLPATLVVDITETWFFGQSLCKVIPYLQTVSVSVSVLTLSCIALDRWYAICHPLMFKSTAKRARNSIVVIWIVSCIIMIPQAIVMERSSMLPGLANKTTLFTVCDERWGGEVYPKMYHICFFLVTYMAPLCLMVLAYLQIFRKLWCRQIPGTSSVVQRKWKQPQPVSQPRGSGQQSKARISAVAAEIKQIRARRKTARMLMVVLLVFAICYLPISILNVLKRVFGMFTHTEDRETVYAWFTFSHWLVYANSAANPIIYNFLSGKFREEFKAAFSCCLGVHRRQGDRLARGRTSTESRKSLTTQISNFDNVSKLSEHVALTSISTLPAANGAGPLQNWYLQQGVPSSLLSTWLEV", "assay": "Ex vivo orexin-2 receptor occupancy", "assay_type": "in vivo", "conditions": "for ED50: po", "description": "Ex Vivo Orexin-2 Receptor Occupancy\nMale Sprague Dawley rats were dosed orally with either vehicle, example 145, (0.3-10 mg/kg po) or example 100, (1 mg/kg, po). Vehicle for example 145 was 90% PEG400/10% Tween-80; for example 100 10% DMAC+10% Solutol+80% (10% HPβCD in water). 1 h post-dose, animals were sacrificed and brains removed. A coronal block containing the cortex was rapidly frozen in isopentane for sectioning and autoradiography. 20 μm thick sections were mounted onto slides and incubated with [^3H]EMPA (total binding) or [^3H]EMPA and 1 μM TCS OX2 29 (non-specific binding) for 20 min at rt. Binding was terminated by aspiration and washing with ice-cold assay buffer and allowed to air dry. Levels of bound radioactivity in the sections were determined using a beta imager over a 16 h period. Occupancy was determined as mean specific binding with the vehicle treated control taken as 100%."}, "rat CT18 sleep model": {"tested_on": "rat CT18 sleep model", "assay": "Rat telemetered sleep study (rat CT18 sleep model)", "assay_type": "in vivo", "conditions": "male CD rats", "description": "Rat Telemetered Sleep Study\nExample 100 was assessed for activity in a rat CT18 sleep model. Adult male CD rats (250-300 g) were implanted with telemetric probes fixed to the skull to record cortical electroencephalogram (EEG), and with telemetric probes fixed to the skeletal muscles of the neck to record electromyogram (neck EMG), and allowed to recover for 3 weeks to re-establish normal sleep patterns. Rats were administered with example 100 (3, 10 and 30 mg/kg, po) or vehicle (80% v/v PEG400, 20% v/v Cremophor EL, 2 ml/kg) at Circadian Time (CT) 18, six hours after lights off. EEG and neck EMG traces were recorded for 5 hours after treatment and analysed to determine time spent awake and in NREM sleep and REM sleep."}, "preclinical sleep models": {"tested_on": "preclinical sleep models", "conditions": "in vivo; cited from earlier work"}, "[2]": {"tested_on": "patients with primary insomnia", "conditions": "Phase II; cited from earlier work"}, "[3]": {"tested_on": "primary insomnia patients", "conditions": "Phase IIb study; cited from earlier work"}, "[4]": {"conditions": "3 mg/kg po at CT18, ANOVA over 3 hours post-treatment"}},
  "note": "Where two headings read alike, the source gives them in different places.",
  "data": [
    {"smiles": "COc1cc(N2C(=O)N(Cc3c(F)cc(F)cc3F)c3ncccc3S2(=O)=O)cnc1OC", "note": "[Example 100, 2-(5,6-Dimethoxypyridin-3-yl)-4-(2,4,6-trifluorobenzyl)-2H-pyrido[2,3-e][1,2,4]thiadiazin-3(4H)-one 1,1-dioxide]", "values": [
      {"measurement": "Ki", "setting": "human Orexin-2 receptor", "value": 2.45, "unit": "nM"},
      {"measurement": "ED50", "setting": "[1]; rat, inferred from 57% occupancy at 1 mg/kg, read-out: ED50 value of orexin-2 receptor occupancy (suggested from single dose)", "value": "< 1", "unit": "mg/kg"},
      {"measurement": "receptor occupancy at 1 mg/kg", "setting": "[1]; rat, male Sprague Dawley rats, 1 mg/kg po, 1 h post-dose", "value": 57, "unit": "%"},
      {"measurement": "NREM sleep", "setting": "rat CT18 sleep model; [4]", "value": "statistically significant increases"},
      {"measurement": "REM sleep", "setting": "rat CT18 sleep model; [4]", "value": "statistically significant increases"},
      {"measurement": "time spent awake", "setting": "rat CT18 sleep model; [4]", "value": "statistically significant decrease"}
    ]},
    {"smiles": "COc1cc(N2C(=O)N(Cc3c(F)cc(F)cc3F)c3ccccc3S2(=O)=O)cnc1OC", "note": "[Example 145, 2-(5,6-Dimethoxypyridin-3-yl)-4-(2,4,6-trifluorobenzyl)-2H-1,2,4-benzothiadiazin-3(4H)-one 1,1-dioxide]", "values": [
      {"measurement": "Ki", "setting": "human Orexin-2 receptor", "value": 4.68, "unit": "nM"},
      {"measurement": "occupancy of cortical orexin-2 receptors, dose dependence", "setting": "[1]; male Sprague Dawley rats, 0.3-10 mg/kg po, 1 h post-dose", "value": "dose dependent manner"},
      {"measurement": "ED50", "setting": "[1]; rat, male Sprague Dawley rats, 0.3-10 mg/kg, 1 h post-dose, estimated, read-out: ED50 of cortical orexin-2 receptor occupancy", "value": 5.8, "unit": "mg/kg"}
    ]},
    {"smiles": "CNc1cc(N2C(=O)N(Cc3c(F)cc(OC)cc3F)c3ccccc3S2(=O)=O)cnc1OC", "note": "[Example 181, 4-(2,6-difluoro-4-methoxybenzyl)-2-[6-methoxy-5-(methylamino)pyridin-3-yl]-2H-1,2,4-benzothiadiazin-3(4H)-one 1,1-dioxide]", "values": [
      {"measurement": "Ki", "setting": "human Orexin-2 receptor", "value": 1.62, "unit": "nM"}
    ]},
    {"smiles": "COc1cc(F)c(CN2C(=O)N(c3ccc4ncsc4c3)S(=O)(=O)c3cccnc32)c(F)c1", "note": "[Example 182, 2-(1,3-Benzothiazol-6-yl)-4-(2,6-difluoro-4-methoxybenzyl)-2H-pyrido[2,3-e][1,2,4]thiadiazin-3(4H)-one 1,1-dioxide]", "values": [
      {"measurement": "Ki", "setting": "human Orexin-2 receptor", "value": 4.47, "unit": "nM"}
    ]},
    {"smiles": "COc1cc(OC)nc(N2C(=O)N(Cc3c(F)cc(OC)cc3F)c3ccccc3S2(=O)=O)c1", "note": "[Example 183, 4-(2,6-difluoro-4-methoxybenzyl)-2-(4,6-dimethoxypyridin-2-yl)-2H-1,2,4-benzothiadiazin-3(4H)-one 1,1-dioxide]", "values": [
      {"measurement": "Ki", "setting": "human Orexin-2 receptor", "value": 2.75, "unit": "nM"}
    ]},
    {"smiles": "CNc1ncc(N2C(=O)N(Cc3c(F)cc(OC)cc3F)c3ncccc3S2(=O)=O)cc1C", "note": "[Example 184, 4-(2,6-Difluoro-4-methoxybenzyl)-2-[5-methyl-6-(methylamino)pyridin-3-yl]-2H-pyrido[2,3-e][1,2,4]thiadiazin-3(4H)-one 1,1-dioxide]", "values": [
      {"measurement": "Ki", "setting": "human Orexin-2 receptor", "value": 8.51, "unit": "nM"}
    ]},
    {"smiles": "COc1cc(N2C(=O)N(Cc3c(F)cc(F)cc3Cl)c3ncccc3S2(=O)=O)cnc1OC", "note": "[Example 185, 4-(2-Chloro-4,6-difluorobenzyl)-2-(5,6-dimethoxypyridin-3-yl)-2H-pyrido[2,3-e][1,2,4]thiadiazin-3(4H)-one 1,1-dioxide]", "values": [
      {"measurement": "Ki", "setting": "human Orexin-2 receptor", "value": 4.17, "unit": "nM"}
    ]},
    {"smiles": "CNc1cc(N2C(=O)N(Cc3c(F)cc(OC)cc3F)c3ncccc3S2(=O)=O)cnc1OC", "note": "[Example 186, 4-(2,6-Difluoro-4-methoxybenzyl)-2-[6-methoxy-5-(methylamino)pyridin-3-yl]-2H-pyrido[2,3-e][1,2,4]thiadiazin-3(4H)-one 1,1-dioxide]", "values": [
      {"measurement": "Ki", "setting": "human Orexin-2 receptor", "value": 1.26, "unit": "nM"}
    ]},
    {"smiles": "Cc1ccc(-c2ncccn2)c(C(=O)N2C[C@H](COc3ccc(F)cn3)CC[C@H]2C)c1", "note": "[MK-6096]", "values": [
      {"measurement": "efficacy in preclinical sleep models", "setting": "preclinical sleep models", "value": "shows efficacy"}
    ]},
    {"smiles": "CNC(=O)[C@@H](c1ccccc1)N1CCc2cc(OC)c(OC)cc2[C@@H]1CCc1ccc(C(F)(F)F)cc1", "note": "[almorexant]", "values": [
      {"measurement": "sleep efficiency", "setting": "[2]", "value": "dose-dependently increased"}
    ]},
    {"smiles": "Cc1ccc(-n2nccn2)c(C(=O)N2CCN(c3nc4cc(Cl)ccc4o3)CC[C@H]2C)c1", "note": "[suvorexant]", "values": [
      {"measurement": "sleep efficiency", "setting": "[3]", "value": "increased"}
    ]},
    {"smiles": "Cc1ccc(-c2nc3ccc(C)cn3c2CC(=O)N(C)C)cc1", "note": "[zolpidem, reference compound]", "values": [
      {"measurement": "NREM latency", "setting": "rat CT18 sleep model; positive control, CT18", "value": "decrease"},
      {"measurement": "NREM sleep", "setting": "rat CT18 sleep model; positive control, CT18", "value": "increase"},
      {"measurement": "time spent awake", "setting": "rat CT18 sleep model; positive control, CT18", "value": "decrease"}
    ]}
  ]
}
